The results in this text go back to patent publication EP4748839A1 (CSPC Zhongqi Pharmaceutical Technology (Shijiazhuang) Co., …, priority 2023, dated 2025).

Series [1] deals with T1, GLP-1R (Homo sapiens, UniProt P43220).
T1 construct: expressed in transfected cells
The series is described as follows: GLP-1R agonistic effect in GLP1R-cAmp-Luc cells (luciferase reporter; titled 'Enzymatic assay'). Type of series: cell-based. As to conditions: for EC50: 4 hours incubation, firefly luciferin signal. In short, it runs like this:
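GLP1R-cAmp-Luc cells were exposed for 4 h at 37 °C to seven 5-fold dilutions starting at 125 nM final. Luciferin (150 µg/mL working) was then added for 30 min at room temperature, and the luciferase signal was read. EC50 came from the concentration–response curve.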

Series [2] has as its target hERG channel (Homo sapiens, UniProt Q12809). The series is described as follows: hERG test, automated patch-clamp in CHO cells stably expressing hERG. Type of series: cell-based. The conditions noted are these: hERG current inhibition, 0.37-30 µM, n = 2. How it is done: The potential inhibitory effects of the test compounds on the hERG channel were assessed using an automated patch-clamp system. In this study, the CHO cell line stably expressing the hERG gene was used, with Cisapride as the positive control.
The CHO-hERG-DUO cell line stably expressing the hERG channel was purchased from B'SYS GmbH. The cells were cultured in F12 (HAM) medium supplemented with 10%FBS, 100 U/mL penicillin-streptomycin, 100 µg/mL hygromycin, and 100 µg/mL G418. The cells were passaged three times per week and maintained at about 80% confluence.
The test compounds were dissolved in DMSO to prepare stock solutions at a final concentration of 10 mM; the stock solution was then serially diluted with DMSO in a 1: 3 ratio (3.33 mM, 1.11 mM and 0.37 mM); and the final concentrations of the test compounds were 30 µM, 10 µM, 3.33 µM, 1.11 µM and 0.37 µM.
A baseline was established using the blank vehicle. […] The hERG current was recorded for no less than 5 minutes to reach a steady state, and then 5 scans were captured. […] The experiments were performed in duplicate (n = 2) and hERG current inhibition by five concentrations of the compound were measured to determine the IC50.
The percent current inhibition was calculated using the following equation. […]
The IC50 was calculated using Graphpad Prism 8.0.

A short description of series [3]: In vivo pharmacokinetic assay in mice. As to conditions: mouse; ICR mice (female), oral gavage 10 mg/kg, plasma. How it is done:
Experimental animals: ICR mice (female, 22-25 g), purchased from Beijing Vital River Laboratory Animal Technology Co., Ltd.
Experimental procedure: ICR mice were administered the test compounds by gavage. Whole blood samples of the mice were collected at 15 min, 0.5 h, 1 h, 2 h, 4 h, 8 h and 24 h after administration and centrifuged to isolate plasma. The compound concentration was measured by LC-MS/MS, and pharmacokinetic parameters such as Area Under the Concentration-Time Curve (AUC) were calculated using Winnolin software.
Oral gavage dose: 10 mg/kg.
Measurement method: Quantitative analysis was carried out in the LC/MS/MS system after pretreatment with a protein precipitation method.

T1 sequence (P43220 24-463, species assumed): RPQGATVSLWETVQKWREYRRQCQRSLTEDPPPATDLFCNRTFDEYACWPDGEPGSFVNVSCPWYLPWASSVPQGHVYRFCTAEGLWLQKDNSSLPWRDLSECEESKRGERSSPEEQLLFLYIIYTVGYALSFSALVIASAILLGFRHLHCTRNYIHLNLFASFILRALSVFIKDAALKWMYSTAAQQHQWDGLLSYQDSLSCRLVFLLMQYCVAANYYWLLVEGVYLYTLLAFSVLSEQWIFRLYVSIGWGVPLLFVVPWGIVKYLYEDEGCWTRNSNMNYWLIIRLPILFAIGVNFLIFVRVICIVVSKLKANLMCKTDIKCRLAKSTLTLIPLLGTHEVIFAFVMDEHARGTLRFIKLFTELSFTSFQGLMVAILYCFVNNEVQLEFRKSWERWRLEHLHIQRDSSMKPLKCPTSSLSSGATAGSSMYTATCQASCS
Sequence of hERG channel (Q12809 whole entry): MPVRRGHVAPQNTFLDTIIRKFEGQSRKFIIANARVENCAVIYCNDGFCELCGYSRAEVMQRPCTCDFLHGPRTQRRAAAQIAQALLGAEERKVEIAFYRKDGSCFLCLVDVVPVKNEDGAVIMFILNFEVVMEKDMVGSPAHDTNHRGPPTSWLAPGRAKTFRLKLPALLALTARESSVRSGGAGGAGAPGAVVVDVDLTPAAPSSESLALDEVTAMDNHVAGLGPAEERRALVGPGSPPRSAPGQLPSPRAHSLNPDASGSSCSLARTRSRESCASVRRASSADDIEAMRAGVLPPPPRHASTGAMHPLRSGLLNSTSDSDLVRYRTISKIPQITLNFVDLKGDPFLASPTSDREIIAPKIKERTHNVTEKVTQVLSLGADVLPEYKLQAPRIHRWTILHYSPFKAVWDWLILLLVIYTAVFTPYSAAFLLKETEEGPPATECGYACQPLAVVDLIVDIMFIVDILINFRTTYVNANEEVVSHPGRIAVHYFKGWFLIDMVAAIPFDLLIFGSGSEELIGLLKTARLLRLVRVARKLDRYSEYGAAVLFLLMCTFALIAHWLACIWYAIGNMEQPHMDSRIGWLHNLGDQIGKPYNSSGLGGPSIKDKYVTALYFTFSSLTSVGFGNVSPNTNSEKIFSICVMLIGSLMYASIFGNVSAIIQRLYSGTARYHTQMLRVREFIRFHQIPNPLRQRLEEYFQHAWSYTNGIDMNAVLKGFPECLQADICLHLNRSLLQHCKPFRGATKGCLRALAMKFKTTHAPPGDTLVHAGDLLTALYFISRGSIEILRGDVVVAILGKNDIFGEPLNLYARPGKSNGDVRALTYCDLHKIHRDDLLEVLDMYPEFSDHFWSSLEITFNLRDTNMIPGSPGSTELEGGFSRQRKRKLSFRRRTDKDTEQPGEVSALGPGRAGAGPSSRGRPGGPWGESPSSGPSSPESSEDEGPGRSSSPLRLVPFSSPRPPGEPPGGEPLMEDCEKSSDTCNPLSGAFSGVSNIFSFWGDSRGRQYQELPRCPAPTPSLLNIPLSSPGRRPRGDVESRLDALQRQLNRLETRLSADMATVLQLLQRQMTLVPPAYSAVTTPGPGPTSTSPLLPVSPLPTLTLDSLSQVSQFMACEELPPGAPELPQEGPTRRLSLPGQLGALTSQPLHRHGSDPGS

`COc1cc(C(F)(F)F)ccc1COc1cccc(-c2cc(F)c(Cc3nc4ccc(C(=O)O)cc4n3C[C@@H]3CCO3)c3c2OCC3)n1` [Compound 71, (S)-2-((5-fluoro-7-(6-((2-methoxy-4-(trifluoromethyl)benzyl)oxy)pyridin-2-yl)-2,3-dihydrobenzofuran-4-yl)methyl)-1-(oxetan-2-ylmethyl)-1H-benzo[d]imidazole-6-carboxylic acid] returned an EC50 in series [1] not above 1 nM. Moreover, in series [1] (Positive reference is PF-06882961), the “EC50 of Positive reference / EC50 of Compound of the Present Application” value was “Ratio ≥10”. Further, in series [2] (human, CHO-hERG-DUO cells stably expressing hERG), the IC50 was more than 30 µM.
Consider `COc1cc(C(=O)O)cc2c1nc(Cc1c(F)cc(-c3cccc(OCc4ccc(Cl)cc4OC(F)F)n3)c3c1CCO3)n2CC1(CF)CC1` [Compound 87, 2-((7-(6-((4-Chloro-2-(difluoromethoxy)benzyl)oxy)pyridin-2-yl)-5-fluoro-2,3-dihydrobenzofuran-4-yl)methyl)-1-((1-(fluoromethyl)cyclopropyl)methyl)-4-methoxy-1H-benzo[d]imidazole-6-carboxylic acid], for which the 50% effective concentration (EC50) in series [1] was not above 1 nM. In series [3], this compound displayed an AUC(0-t) of 12200 ng·h/mL. The IC50 in series [2] (CHO-hERG-DUO cells) is more than 30 µM.
